Assays:
Assay type in all cases: cell-based
[1] = tested on: Bacillus cereus; assay: Antibiotic disk susceptibility test, rings of inhibition; details: for B. cereus, diameter of ring of inhibition, antimicrobial paper towels: 6 mm paper discs punched from paper towels, antibiotic control discs 10 or 30 ug; for B. cereus, diameter of ring of inhibition: Mueller-Hinton plate, 18-24 hrs at 37° C., 100 μg of compound per disc, control discs 10 or 30 μg
Protocol: (§1) Compounds were tested for antibacterial activity, as described in Ma et al. (2011), against pure cultures of Escherichia coli, Pseudomonas aeruginosa, Bacillus cereus, Proteus mirabilis/hauseri, and Staphylococcus aureus, supplied by Ward's Natural Science Ltd. (St. Catherines, Ontario, Canada). All cultures were maintained on Tryptic Soy agar. These cultures were then transferred using an inoculation loop to 10 mL of Tryptic soy broth, and grown at 37° C. for 24 hours. Triplicates of plate and broth cultures were made in case of error or contamination. Using a sterile swab, and aseptic techniques, the bacterial broth inocula were transferred to Mueller-Hinton plates and spread evenly, ensuring that the entire surface was inoculated. They were then left to dry for 3-5 minutes. The following control discs were used: Penicillin (10 μg), Tetracycline (30 μg), Chloramphenicol (30 μg), and Ampicillin (10 μg). Four antibiotic discs containing different compounds were placed equidistant from each other on a Mueller-Hinton plate. […] If clear rings of inhibition were present, the diameter was measured twice using a caliper. […] The paper towels were then allowed to dry. After, 5 cm from each edge of the paper towels was cut out (to prevent edge areas where spraying might have been irregular being tested), and from the remaining paper towels, a single hole punch machine was used to punch 6 mm paper discs from each of the paper towels.

[2] = tested on: Escherichia coli; assay: as above; details: for E. coli, diameter of ring of inhibition, antimicrobial paper towels: 6 mm paper discs punched from paper towels, antibiotic control discs 10 or 30 ug; for E. coli, diameter of ring of inhibition: Mueller-Hinton plate, 18-24 hrs at 37° C., 100 μg of compound per disc, control discs 10 or 30 μg
Protocol: as §1

[3] = tested on: Proteus mirabilis/hauseri; assay: as above; details: for P. hauseri, diameter of ring of inhibition, antimicrobial paper towels: 6 mm paper discs punched from paper towels, antibiotic control discs 10 or 30 ug; for P. hauseri, diameter of ring of inhibition: Mueller-Hinton plate, 18-24 hrs at 37° C., 100 μg of compound per disc, control discs 10 or 30 μg
Protocol: as §1

[4] = tested on: Pseudomonas aeruginosa; assay: as above; details: for P. aeruginosa, diameter of ring of inhibition: Mueller-Hinton plate, 18-24 hrs at 37° C., 100 μg of compound per disc, control discs 10 or 30 μg
Protocol: as §1

[5] = tested on: Staphylococcus aureus; assay: as above; details: for S. aureus, diameter of ring of inhibition, antimicrobial paper towels: 6 mm paper discs punched from paper towels, antibiotic control discs 10 or 30 ug; for S. aureus, diameter of ring of inhibition: Mueller-Hinton plate, 18-24 hrs at 37° C., 100 μg of compound per disc, control discs 10 or 30 μg
Protocol: as §1

[6] = tested on: Candida albicans; assay: Antifungal disk susceptibility test, rings of inhibition; details: for C. albicans, diameter of ring of inhibition: Sabouraud plate, 18-24 hrs at 37° C., 100 μg of compound per disc, Amphotericin B 50 ug or 20 μg
Protocol: (§2) Adapted from Messer et al., (2007), this protocol was used to test novel compounds for antifungal properties against yeasts and fungi. Compounds were tested for antifungal activity against pure cultures of Saccharomyces cerevisiae, Candida albicans supplied by Ward's Natural Science Ltd. and Aspergillus niger and Aspergillus fumigatus supplied by […]. (Inverness Medical, Ottawa, Ontario, Canada). All cultures were maintained on Sabouraud agar. […] The cultures of A. niger and A. fumigatus were transferred, using an inoculation loop, to new Sabouraud agar and grown for 48 hrs. at 27° C., and 35° C. respectively, to cause sporulation. Triplicates of all the plates and broth cultures were made in case of error or contamination. Using a sterile swab, and aseptic techniques, the cell suspension of S. cerevisiae, and C. albicans were transferred to Sabouraud agar plates and spread evenly, ensuring that the entire surface was inoculated. They were then left to dry for 10 minutes. […] The 0.2% Tween 80 reduces the hydrophobicity of the conidia, allowing the spores to be readily suspended (Messer et al., 2007). Alternatively two small circles containing fungal growth of the A Niger or A Fumigatus fungi were cut from the agar plates, and using a glass/PTFE tissue homoginzer, were mixed and homogenized with 5 ml of sterile MilliQ water to create a suspension of fungal spores. Using a sterile swab, and aseptic techniques, the spore inocula of A. niger and A. fumigatus were transferred to Sabouraud agar plates and spread evenly, ensuring that the entire surface was inoculated. They were then left to dry for 10 minutes. […] Four antibiotic discs containing different compounds were place equidistant apart on each Sabouraud plate. […] If clear rings of inhibition were present, the diameter was measured twice using a caliper. Halos indicated partial inhibition of growth (Hicks et al., 2008). […] The paper towels were then allowed to dry. After, 5 cm from each edge of the paper towels was cut out (to prevent edge areas where spraying might have been irregular being tested), and from the remaining paper towels, a single hole punch machine was used to punch 6 mm paper discs from each of the paper towels.

[7] = tested on: Saccharomyces cerevisiae; assay: as above; details: for S. cerevisiae, diameter of ring of inhibition: Sabouraud plate, 18-24 hrs at 37° C., 100 μg of compound per disc, Amphotericin B 50 ug or 20 μg
Protocol: as §2

[8] = tested on: Aspergillus fumigatus; assay: as above; details: for A. fumigatus, diameter of ring of inhibition: Sabouraud plate, 18-24 hrs at 35° C., 100 μg of compound per disc, Amphotericin B 100 ug or 20 μg
Protocol: (§3) Adapted from Messer et al., (2007), this protocol was used to test novel compounds for antifungal properties against yeasts and fungi. Compounds were tested for antifungal activity against pure cultures of Saccharomyces cerevisiae, Candida albicans supplied by Ward's Natural Science Ltd. and Aspergillus niger and Aspergillus fumigatus supplied by […]. (Inverness Medical, Ottawa, Ontario, Canada). All cultures were maintained on Sabouraud agar. […] The cultures of A. niger and A. fumigatus were transferred, using an inoculation loop, to new Sabouraud agar and grown for 48 hrs. at 27° C., and 35° C. respectively, to cause sporulation. Triplicates of all the plates and broth cultures were made in case of error or contamination. Using a sterile swab, and aseptic techniques, the cell suspension of S. cerevisiae, and C. albicans were transferred to Sabouraud agar plates and spread evenly, ensuring that the entire surface was inoculated. They were then left to dry for 10 minutes. […] The 0.2% Tween 80 reduces the hydrophobicity of the conidia, allowing the spores to be readily suspended (Messer et al., 2007). Alternatively two small circles containing fungal growth of the A Niger or A Fumigatus fungi were cut from the agar plates, and using a glass/PTFE tissue homoginzer, were mixed and homogenized with 5 ml of sterile MilliQ water to create a suspension of fungal spores. Using a sterile swab, and aseptic techniques, the spore inocula of A. niger and A. fumigatus were transferred to Sabouraud agar plates and spread evenly, ensuring that the entire surface was inoculated. They were then left to dry for 10 minutes. Amphotericin B (100 μg) in acetone was used as a control. Four antibiotic discs containing different compounds were place equidistant apart on each Sabouraud plate. […] If clear rings of inhibition were present, the diameter was measured twice using a caliper. Halos indicated partial inhibition of growth (Hicks et al., 2008). […] The paper towels were then allowed to dry. After, 5 cm from each edge of the paper towels was cut out (to prevent edge areas where spraying might have been irregular being tested), and from the remaining paper towels, a single hole punch machine was used to punch 6 mm paper discs from each of the paper towels.

[9] = tested on: Aspergillus niger; assay: as above; details: for A. niger, diameter of ring of inhibition: Sabouraud plate, 48 hrs at room temperature, 100 μg of compound per disc, Amphotericin B 100 ug or 20 μg
Protocol: as §3

[10] = 6 mm paper discs punched from paper towels, PAA-BZ-H 100 μg of solution onto paper discs, Amphotericin B 20 ug

Molecule	B. cereus, diameter of ring of inhibition, antimicrobial paper towels [1]	B. cereus, diameter of ring of inhibition [1]	E. coli, diameter of ring of inhibition, antimicrobial paper towels [2]	E. coli, diameter of ring of inhibition [2]	P. hauseri, diameter of ring of inhibition, antimicrobial paper towels [3]	P. hauseri, diameter of ring of inhibition [3]	P. aeruginosa, diameter of ring of inhibition, antimicrobial paper towels ([4]; 6 mm paper discs punched from paper towels, antibiotic control discs 10 or 30 ug)	P. aeruginosa, diameter of ring of inhibition [4]	S. aureus, diameter of ring of inhibition, antimicrobial paper towels [5]	S. aureus, diameter of ring of inhibition [5]	C. albicans, diameter of ring of inhibition [6]	S. cerevisiae, diameter of ring of inhibition [7]	A. fumigatus, diameter of ring of inhibition [8]	A. niger, diameter of ring of inhibition [9]	C. albicans, diameter of ring of inhibition, antimicrobial paper towels [6, 10]	S. cerevisiae, diameter of ring of inhibition, antimicrobial paper towels [7, 10]	A. fumigatus, diameter of ring of inhibition, antimicrobial paper towels [8, 10]	A. niger, diameter of ring of inhibition, antimicrobial paper towels [9, 10]
CN(C)[C@@H]1C(O)=C(C(N)=O)C(=O)[C@@]2(O)C(O)=C3C(=O)c4c(O)cccc4[C@@](C)(O)[C@H]3C[C@@H]12 [Compound 10, Tetracycline]	20.3	20.30	20.45	20.45	29.5	29.50	10.75	10.75	23.3	23.30								
O=C(N[C@H](CO)[C@H](O)c1ccc([N+](=O)[O-])cc1)C(Cl)Cl [Compound 11, Chloramphenicol]	26.3	26.30	32.25	32.25	16.5	16.50			17.7	17.70								
CC1(C)S[C@@H]2[C@H](NC(=O)[C@H](N)c3ccccc3)C(=O)N2[C@H]1C(=O)O [Compound 12, Ampicillin]	13.5	13.50	17.13	17.13	19	19.00			28.8	28.80								
C[C@@H]1[C@H](O)[C@@H](C)/C=C/C=C/C=C/C=C/C=C/C=C/C=C/[C@H](O[C@@H]2O[C@H](C)[C@@H](O)[C@H](N)[C@@H]2O)C[C@@H]2O[C@](O)(C[C@@H](O)C[C@@H](O)[C@H](O)CC[C@@H](O)C[C@@H](O)CC(=O)O[C@H]1C)C[C@H](O)[C@H]2C(=O)O [Compound 13, Amphotericin B]											9.35	8.39	11.19	17.86				
C[C@@H]1[C@H](O)[C@@H](C)/C=C/C=C/C=C/C=C/C=C/C=C/C=C/[C@H](O[C@@H]2O[C@H](C)[C@@H](O)[C@H](N)[C@@H]2O)C[C@@H]2O[C@](O)(C[C@@H](O)C[C@@H](O)[C@H](O)CC[C@@H](O)C[C@@H](O)CC(=O)O[C@H]1C)C[C@H](O)[C@H]2C(=O)O [Compound 14, Amphotericin B]											11.00	10.80	7.80	8.80	9.7	13.4	9.4	8.7
CCCCCCCCCCCCCC[N+](C)(C)Cc1ccccc1.[Cl-] [Compound 15, Benzyldimethyltetradecylammonium chloride]		14.30		12.70		12.63		8.13		13.43	7.48	11.33	8.13	10.97				
Penicillin [Compound 9]			15.91	15.91	11	11.00			31.5	31.50								
